Test results reported in PMC6093650, “Antidepressive and anxiolytic effects of ostruthin, a TREK-1 channel activator” (PLoS ONE, 2018).
pIC50: −log10 of the molar value.

How the values were obtained:
[1] = system: general locomotor activity of mice; assay: voluntary wheel running test; format: in vivo; details: 0, 2, 5, 20 mg/kg i.p., after elevated plus maze, 5 min, n = 7
From the text: (§1) Male ICR mice (n = 317 in total) aged 5 weeks and weighing 32 ± 2 g were purchased from Shimizu Laboratory Supplies (Kyoto, Japan). For the social defeat stress test, we used 28 C57BL/6J mice (5 weeks old, Shimizu Laboratory Supplies) and 30 ICR mice (7–8 weeks old, Charles River Labs Japan, Yokohama, Kanagawa, Japan). Mice were maintained for at least 1 week prior to experiments. Animals were kept in groups in plastic cages. They had free access to food and water, and were kept in a 12-h light/dark cycle (08:00–20:00). Experiments were carried out between 10:00 and 18:00 in a quiet and air-conditioned experimental room, in which mice were habituated for at least 30 min before each experiment. Animal experiments were performed in accordance with the guidelines of the Physiological Society of Japan and were approved by the Committees on Animal Experiments at Kansai Medical University and the Kurashiki University of Science and the Arts. Ostruthin was initially dissolved in DMSO at higher concentration (100 mM) and then diluted in phosphate-buffered saline (PBS). […]
Immediately after the elevated plus maze test, the same mouse was subjected to the voluntary wheel running test. The number of rotations was measured for 5 min using an activity monitoring running wheel (Muromachi Kikai, Tokyo, Japan).

KCNQ-3 = KCNQ-3 (Homo sapiens, UniProt O43525); assay: whole-cell patch-clamp of KCNQ-3 currents in 293T cells; format: cell-based; details: 100 μM (data not shown)
From the text: (§2) For recordings of K^+ channel currents, we prepared stable cell lines for TREK-1, TWIK-related acid-sensitive K^+ channel (TASK-1), strongly inwardly rectifying K^+ channel (Kir2.1), and human ether-a-go-go-related gene (HERG-1) channels and transiently expressed other channels in 293T cells using a calcium-phosphate transfection method. For the establishment of the stable lines, we used lentiviral vectors, and the preparation methods for the lentiviral vectors were described in our previous report. TR-1 cells, which stably expressed TREK-1 channel and were grown on a small cover glass (3 × 18 mm), were placed in a recording chamber with an internal volume of 200 μl. Whole-cell currents were recorded in Tyrode solution using an Axopatch 200B amplifier (Axon Instruments, Foster City, CA) at 25°C. Tyrode solution contained (in mM): NaCl 140, KCl 5.4, NaH2PO4 0.33, CaCl2 2, MgCl2 1, HEPES 5, and glucose 5.5 (pH 7.4 adjusted with NaOH). […] Perfusion (100 μl/min) was continued to maintain the water level throughout recordings. pH and osmotic pressure of solutions were measured with a pH meter (Horiba, Kyoto, Japan) and a freezing point osmometer (Knauer, Berlin, Germany), respectively. […]

[2] = system: depression-like behavior of mice; assay: forced swim test; format: in vivo; details: 0, 2, 5, 20 mg/kg i.p. 30 min before test, dose-dependent, last 4 min of 6 min, n = 8
From the text: as §1, with “(PBS). The diluted solution was mixed vigorously for more than 10 min before the experiments, and an equal volume of DMSO was added to PBS as a control.” for “(PBS).”
The forced swim test was performed in accordance with a method reported previously. […] Mouse was allowed to swim for 6 min and the activity was measured. […]

Kir2.1 = biological target: T1, Kir2.1 (Homo sapiens, UniProt P63252); assay: whole-cell patch-clamp of Kir2.1 currents in 293T cells; format: cell-based; details: n = 5, read-out: IC50 Kir 2.1
T1 construct: expressed in transfected cells
T1 sequence (P63252 1-427): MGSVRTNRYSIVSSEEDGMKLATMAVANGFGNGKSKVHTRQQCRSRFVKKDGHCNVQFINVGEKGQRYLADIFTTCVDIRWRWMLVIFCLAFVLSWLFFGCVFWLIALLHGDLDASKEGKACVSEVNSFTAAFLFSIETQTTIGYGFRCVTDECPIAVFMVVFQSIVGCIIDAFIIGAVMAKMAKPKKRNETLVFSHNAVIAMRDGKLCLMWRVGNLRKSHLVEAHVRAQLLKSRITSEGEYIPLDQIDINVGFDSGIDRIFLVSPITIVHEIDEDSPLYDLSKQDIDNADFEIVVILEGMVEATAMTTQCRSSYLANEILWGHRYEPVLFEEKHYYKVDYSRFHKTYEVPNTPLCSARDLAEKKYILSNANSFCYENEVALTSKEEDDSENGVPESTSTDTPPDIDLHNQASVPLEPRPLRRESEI
From the text: as §2

[3] = system: GABAergic mIPSCS in the amygdala neurons; assay: GABAergic mIPSCs in amygdala neurons (preliminary data); format: cell-based; details: 100 μM
[4] = system: mice anxiety-like behavior; assay: light/dark box test; format: in vivo; details: n = 8
From the text: Male ICR mice (n = 317 in total) aged 5 weeks and weighing 32 ± 2 g were purchased from Shimizu Laboratory Supplies (Kyoto, Japan). For the social defeat stress test, we used 28 C57BL/6J mice (5 weeks old, Shimizu Laboratory Supplies) and 30 ICR mice (7–8 weeks old, Charles River Labs Japan, Yokohama, Kanagawa, Japan). Mice were maintained for at least 1 week prior to experiments. Animals were kept in groups in plastic cages. They had free access to food and water, and were kept in a 12-h light/dark cycle (08:00–20:00). Experiments were carried out between 10:00 and 18:00 in a quiet and air-conditioned experimental room, in which mice were habituated for at least 30 min before each experiment. Animal experiments were performed in accordance with the guidelines of the Physiological Society of Japan and were approved by the Committees on Animal Experiments at Kansai Medical University and the Kurashiki University of Science and the Arts. Ostruthin was initially dissolved in DMSO at higher concentration (100 mM) and then diluted in phosphate-buffered saline (PBS). The diluted solution was mixed vigorously for more than 10 min before the experiments, and an equal volume of DMSO was added to PBS as a control. PBS and ostruthin were administered intraperitoneally 30 min before mice behavioral tests (0.01 ml/g body weight). Each animal was used only once, except for the wheel running test, which was carried out immediately after elevated plus maze.
The light/dark box consisted of two compartments with a total exterior size of 46 × 27 × 30 cm. One-third of the box was used as a dark compartment, which was covered with a black wall and lid, and the rest of the area was used as a light compartment. These compartments were connected via a small opening (7 × 7 cm), enabling transition between the two compartments. We placed a mouse in the center of the light area and measured the time spent in the light area and the number of transitions between the light and dark compartments for 5 minutes.

TASK-1 = biological target: T2, TASK-1 (Homo sapiens, UniProt O14649); assay: whole-cell patch-clamp of TASK-1 currents in a 293T cell line; format: cell-based; details: n = 10
T2 construct: expressed in transfected cells
T2 sequence (O14649 whole entry, species assumed): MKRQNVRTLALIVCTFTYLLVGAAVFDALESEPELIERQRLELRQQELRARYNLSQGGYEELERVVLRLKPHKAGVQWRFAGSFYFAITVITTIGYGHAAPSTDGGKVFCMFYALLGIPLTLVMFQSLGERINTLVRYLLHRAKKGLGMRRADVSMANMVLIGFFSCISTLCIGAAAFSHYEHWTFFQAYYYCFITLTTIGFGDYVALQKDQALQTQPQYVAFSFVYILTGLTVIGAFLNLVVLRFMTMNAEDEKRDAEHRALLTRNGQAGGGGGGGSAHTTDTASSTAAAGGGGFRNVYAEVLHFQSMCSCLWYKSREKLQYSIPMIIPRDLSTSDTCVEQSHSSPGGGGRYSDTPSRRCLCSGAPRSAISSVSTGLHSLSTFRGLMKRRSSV
From the text: as §2

[5] = i.p. 30 min before test, vs 0 mg/kg

effect on KCNQ-3 channels (KCNQ-3): no effect
pIC50 (Kir2.1): 3.70
pIC50 (TASK-1): 4.39
SMILES: CC(C)=CCC/C(C)=C/Cc1cc2ccc(=O)oc2cc1O [ostruthin]
number of wheel rotations (voluntary motility) [1]: no effect at any dose
time spent immobile [2]: decreased
amplitude or frequency of GABAergic mIPSCS in the amygdala neurons [3]: no effect
time spent in the light box ([4]; 20 mg/kg i.p., vs 5 mg/kg): decreased
number of transitions between the light and dark boxes ([4]; highest dose (20 mg/kg) i.p.): non-significantly decreased
number of transitions between the light and dark boxes [4, 5]: increased
time spent in the light box [4, 5]: significantly increased
